The structures appear in SMILES notation. Where only a bound is given, the exact number is not on record here.

As usually defined, the IC50 is the point on the concentration scale where inhibition reaches its midpoint.

One experiment concerns Hedgehog signalling pathway. Nature of the experiment: Gli-reporter NIH3T3 luciferase assay (Hedgehog pathway inhibition). It counts as cell-based. Conditions: NIH3T3; Gli-reporter NIH-3T3 cells, recombinant mouse sonic hedgehog, 24 hours, luminescence; read-out: Category (Hedgehog pathway inhibition activity, IC50). The procedure: In vitro biological evaluation of compounds of the invention was carried out using the procedure detailed below. The procedure provides activity data for the compounds of the invention against the Hedgehog signalling pathway. The activity is represented as IC50 values in Table 12 below.
The Gli-reporter NIH3T3 cell line (BPS Biosciences) was grown according to the suppliers recommendations. Briefly, cells were maintained in growth medium (DMEM supplemented with 10% calf serum, 1% Penicillin/Streptomycin, and 500 µg/mL of Geneticin) and grown at 37° C., 5% CO2. In order to passage cells they were first rinsed with phosphate buffered saline before the addition of 0.05% Trypsin/EDTA. Fresh growth media was added and the cells were transferred to a centrifuge tube, spun and resuspended at an appropriate cell density.
Gli-reporter NIH-3T3 cells were seeded at 20,000 cells/well into 96 well, poly-D-lysine coated white clear bottomed full area TC plates in growth media (without geneticin). Three wells were left with just media as cell free controls. Cells were then incubated for 24 hours at 37° C. in a 5% CO2.
Serial dilutions of the test compounds were prepared in 100% DMSO. 10 μl of compound or DMSO from each well was pipetted into a sterile, 0.5 ml deep well conical bottomed 96 well plate (intermediate plate). 190 μl of warmed assay media (Opti-MEM supplemented with 0.5% calf serum, 1% non-essential amino acids, 1 mM sodium pyruvate, 10 mM HEPES, 1% penicillin/Streptomycin) was then added to each well and mixed five times at 180 μl by electronic pipette to ensure homogeneity of the compound solution. This 1:20 dilution gives a top concentration of 50 μM in 5% DMSO, 95% assay media. 10 μl was pipetted from each well of the intermediate plate into a second deep well sterile plate. 490 μl of warm assay media was then added to each well and mixed five times at 300 μl. This gives a final top concentration of 1 μM in 0.1% DMSO.
After the 24 hour incubation, media was carefully removed by pipette and replaced with 45 μl of compound dilutions in triplicate. This was incubated for one hour at 37° C. in a 5% CO2. After an hour, 5 μl 10 μg/mL recombinant mouse sonic hedgehog (R&D Systems) was added to each well and the plates were incubated for a further 24 hours at 37° C., 5% CO2.
After 24 hours, plates were removed from the incubator and left to acclimatise to room temperature for 20 minutes. 50 μl of OneGLO assay reagent (Promega) was then added to each well and the plates gently shaken for a further 30 minutes. Plates were then read for luminescence on the EnVision plate reader (PerkinElmer).
With `CN(Cc1ccc(F)cc1C(F)(F)F)C1CCN(c2ccc(-c3ccnn3C)nn2)CC1` [Example 42, N-[[4-fluoro-2-(trifluoromethyl)phenyl]methyl]-N-methyl-1-[6-(2-methylpyrazol-3-yl)pyridazin-3-yl]piperidin-4-amine], the half-inhibitory concentration (IC50) is under 10 nM.
Still for that read-out and setting: for `COc1cccc(CN(C)C2CCN(c3nnc(-c4ccnn4C)c4ccccc34)CC2)c1` [Example 62, N-[(3-methoxyphenyl)methyl]-N-methyl-1-[4-(2-methylpyrazol-3-yl)phthalazin-1-yl]piperidin-4-amine] the value was 10 to 200 nM.
The same measure, in the same setting: under `CN(Cc1ccc(C#N)cc1)C1CCN(c2nnc(-c3ccnn3C)c3ccccc23)CC1` [Example 60, 4-[[methyl-[1-[4-(2-methylpyrazol-3-yl)phthalazin-1-yl]-4-piperidyl]amino]methyl]benzonitrile] stands 10 to 200 nM; under `Cn1nccc1-c1nnc(N2CCC(NC(=O)Nc3ccccc3OC(F)(F)F)CC2)c2ccccc12` [Example 25, 1-[1-[4-(2-methylpyrazol-3-yl)phthalazin-1-yl]-4-piperidyl]-3-[2-(trifluoromethoxy)phenyl]urea], under 10 nM; under `COc1ccccc1CNC1CCN(c2nnc(-c3ccnn3C)c3ccccc23)CC1` [Example 69, N-[(2-methoxyphenyl)methyl]-1-[4-(2-methylpyrazol-3-yl)phthalazin-1-yl]piperidin-4-amine], 200 to 2000 nM.
On to `Cn1nccc1-c1nnc(N2CCC(NC(=O)Nc3ccccc3F)CC2)c2ccccc12` [Example 46, 1-(2-fluorophenyl)-3-[1-[4-(2-methylpyrazol-3-yl)phthalazin-1-yl]-4-piperidyl]urea], for which the 50% inhibitory concentration (IC50) is under 10 nM.
`Cn1nccc1-c1nnc(N2CCC(NCc3ccc(F)cc3F)CC2)c2ccccc12` [Example 74, N-[(2,4-difluorophenyl)methyl]-1-[4-(2-methylpyrazol-3-yl)phthalazin-1-yl]piperidin-4-amine]: the IC50 was 200 to 2000 nM.
On the same count and under the same terms, under `Cn1nccc1-c1nnc(N2CCC(NCc3ccccc3[N+](=O)[O-])CC2)c2ccccc12` [Example 31, 1-[4-(2-methylpyrazol-3-yl)phthalazin-1-yl]-N-[(2-nitrophenyl)methyl]piperidin-4-amine] stands 10 to 200 nM; under `CN(Cc1ccc(F)nc1F)C1CCN(c2nnc(-c3ccnn3C)c3ccccc23)CC1` [Example 27, N-[(2,6-difluoro-3-pyridyl)methyl]-N-methyl-1-[4-(2-methylpyrazol-3-yl)phthalazin-1-yl]piperidin-4-amine], 10 to 200 nM; under `Cn1nccc1-c1nnc(N2CCC(NC(=O)Nc3cccc(C#N)c3)CC2)c2ccccc12` [Example 22, 1-(3-cyanophenyl)-3-[1-[4-(2-methylpyrazol-3-yl)phthalazin-1-yl]-4-piperidyl]urea], under 10 nM.
On the same count and under the same terms, for `Cn1nccc1-c1nnc(N2CCC(NCc3cccc(F)c3)CC2)c2ccccc12` [Example 73, N-[(3-fluorophenyl)methyl]-1-[4-(2-methylpyrazol-3-yl)phthalazin-1-yl]piperidin-4-amine] the value was 10 to 200 nM.

The same experiment, now with this note: NIH3T3; Gli-reporter NIH-3T3 cells, recombinant mouse sonic hedgehog, 24 hours, luminescence; read-out: Gli Luc nM (IC50).
Regarding `CN(Cc1ccc(F)cc1C(F)(F)F)C1CCN(c2ccc(-c3ccnn3C)nn2)CC1` [Example 42, N-[[4-fluoro-2-(trifluoromethyl)phenyl]methyl]-N-methyl-1-[6-(2-methylpyrazol-3-yl)pyridazin-3-yl]piperidin-4-amine], the IC50 worked out at 0.04 nM.

Still in this experiment, the particulars now being: NIH3T3; Gli-reporter NIH-3T3 cells, recombinant mouse sonic hedgehog, 24 hours, luminescence; read-out: Gli luc IC50.
Consider `CN(C(=O)Nc1ccc(F)cc1F)C1CCN(c2nnc(-c3ccnn3C)c3ccccc23)CC1` [Example 169, 3-(2,4-difluorophenyl)-1-methyl-1-[1-[4-(2-methylpyrazol-3-yl)phthalazin-1-yl]-4-piperidyl]urea], for which the IC50 was under 10 nM.
Same read-out and setting: under `CN(Cc1cccc(C#N)c1)C1CCN(c2nnc(-c3ccnn3C)c3ccccc23)CC1` [Example 168, 3-[[methyl-[1-[4-(2-methylpyrazol-3-yl)phthalazin-1-yl]-4-piperidyl]amino]methyl]benzonitrile] stands 10 to 200 nM.
On the same count and under the same terms, under `Cn1nccc1-c1nnc(N2CCC(CNCc3ccc(F)cc3C(F)(F)F)C2)c2ccccc12` (centres unmarked) [Example 140, 1-[4-fluoro-2-(trifluoromethyl)phenyl]-N-[[1-[4-(2-methylpyrazol-3-yl)phthalazin-1-yl]pyrrolidin-3-yl]methyl]methanamine] stands 10 to 200 nM; under `Cc1c(-c2ccnn2C)nnc(N2CCC(N(C)Cc3ccnnc3)CC2)c1C` [Example 90, 1-[4,5-dimethyl-6-(2-methylpyrazol-3-yl)pyridazin-3-yl]-N-methyl-N-(pyridazin-4-ylmethyl)piperidin-4-amine], over 200 nM; under `COc1ccc(-c2nnc(N3CCC(N(C)Cc4ccc(F)cc4C(F)(F)F)CC3)c(C)c2C)cn1` [Example 110, N-[[4-fluoro-2-(trifluoromethyl)phenyl]methyl]-1-[6-(6-methoxy-3-pyridyl)-4,5-dimethyl-pyridazin-3-yl]-N-methyl-piperidin-4-amine], 10 to 200 nM.
`Cc1c(-c2ccnn2C)nnc(N2CCC(N(C)Cc3ccccc3C(C)C)CC2)c1C` [Example 82, 1-[4,5-dimethyl-6-(2-methylpyrazol-3-yl)pyridazin-3-yl]-N-[(2-isopropylphenyl)methyl]-N-methyl-piperidin-4-amine]: the IC50 lay within 10 to 200 nM.
With `Cn1nccc1-c1nnc(N2CCC(NCc3ncccc3C(F)(F)F)CC2)c2ccccc12` [Example 150, 1-[4-(2-methylpyrazol-3-yl)phthalazin-1-yl]-N-[[3-(trifluoromethyl)-2-pyridyl]methyl]piperidin-4-amine], the half-maximal inhibitory concentration (IC50) lay in the range of 10 to 200 nM.
On the same count and under the same terms, under `Cn1nccc1-c1nnc(N2CCC(NCc3ccc(F)cc3C(F)(F)F)CC2)c2ncccc12` [Example 146, N-[[4-fluoro-2-(trifluoromethyl)phenyl]methyl]-1-[5-(2-methylpyrazol-3-yl)pyrido[2,3-d]pyridazin-8-yl]piperidin-4-amine] stands over 200 nM.
Still for that read-out and setting: for `CN(Cc1ccc(F)nc1C(F)(F)F)C1CCN(c2nnc(-c3ccnn3C)c3ccccc23)CC1` [Example 160, N-[[6-fluoro-2-(trifluoromethyl)-3-pyridyl]methyl]-N-methyl-1-[4-(2-methylpyrazol-3-yl)phthalazin-1-yl]piperidin-4-amine] the value was under 10 nM; for `Cc1c(-c2ccnn2C)nnc(N2CCC(N(C)Cc3ncccc3C(F)(F)F)CC2)c1C` [Example 85, 1-[4,5-dimethyl-6-(2-methylpyrazol-3-yl)pyridazin-3-yl]-N-methyl-N-[[3-(trifluoromethyl)-2-pyridyl]methyl]piperidin-4-amine], 10 to 200 nM; for `Cn1nccc1-c1nnc(N2CCC(NCc3cccnc3C(F)(F)F)CC2)c2ccccc12` [Example 155, 1-[4-(2-methylpyrazol-3-yl)phthalazin-1-yl]-N-[[2-(trifluoromethyl)-3-pyridyl]methyl]piperidin-4-amine], under 10 nM.
Same read-out and setting: under `Cc1c(-c2ccnn2C)nnc(N2CCC(N(C)Cc3ccccc3C#N)CC2)c1C` [Example 87, 2-[[[1-[4,5-dimethyl-6-(2-methylpyrazol-3-yl)pyridazin-3-yl]-4-piperidyl]-methyl-amino]methyl]benzonitrile] stands 10 to 200 nM; under `Cn1nccc1-c1nnc(N2CCC(NC(=O)NC(C)(C)C)CC2)c2c1CCC2` [Example 161, 1-tert-butyl-3-[1-[1-(2-methylpyrazol-3-yl)-6,7-dihydro-5H-cyclopenta[d]pyridazin-4-yl]-4-piperidyl]urea], 10 to 200 nM; under `CN(Cc1ccnnc1)C1CCN(c2nnc(-c3ccnn3C)c3ccccc23)CC1` [Example 91, N-methyl-1-[4-(2-methylpyrazol-3-yl)phthalazin-1-yl]-N-(pyridazin-4-ylmethyl)piperidin-4-amine], over 200 nM.
For the molecule `CN(Cc1cccnc1C(F)(F)F)C1CCN(c2nnc(-c3ccnn3C)c3ccccc23)CC1` [Example 157, N-methyl-1-[4-(2-methylpyrazol-3-yl)phthalazin-1-yl]-N-[[2-(trifluoromethyl)-3-pyridyl]methyl]piperidin-4-amine], the half-maximal inhibitory concentration (IC50) was under 10 nM.
Still for that read-out and setting: under `CC(NC1CCN(c2nnc(-c3ccnn3C)c3ccccc23)CC1)c1ccc(F)cc1C(F)(F)F` (centres unmarked) [Example 143, N-[1-[4-fluoro-2-(trifluoromethyl)phenyl]ethyl]-1-[4-(2-methylpyrazol-3-yl)phthalazin-1-yl]piperidin-4-amine] stands 10 to 200 nM; under `CN(C1CCN(c2nnc(-c3ccnn3C)c3c2CCC3)CC1)S(=O)(=O)c1ccc(F)cc1C(F)(F)F` [Example 124, 4-fluoro-N-methyl-N-[1-[1-(2-methylpyrazol-3-yl)-6,7-dihydro-5H-cyclopenta[d]pyridazin-4-yl]-4-piperidyl]-2-(trifluoromethyl)benzenesulfonamide], 10 to 200 nM.
